We go through 18 compounds from patent publication US20230096766A1, “AMINO ACID HAVING FUNCTIONAL GROUP CAPABLE OF INTERMOLECULAR HYDROGEN BONDING, PEPTIDE COMPOUND CONTAINING SAME AND METHOD FOR PRODUCTION THEREOF” (Chugai Seiyaku Kabushiki Kaisha, priority 2018, published 2023).

*1 amine or outer side, *2 acyl side, *3 side chain or, on linkers, in order; H or OH if unused. Where a SMILES comes first, the peptide text is derived from it. Bridges are numbered along the chain shown (N, C = ends). [ ]: non-standard residue; d: D form. The star is where a group is joined. NMePhe(3-Cl) = CN[C@@H](Cc1cccc(Cl)c1)C(=O)O; X12 = O=C([C@H](CCCC(O)C(F)(F)F)N[*:1])[*:2]; NMeF = CN[C@@H](Cc1ccccc1)C(=O)O; NMeGABA = CN(CCCC(=O)[*:2])[*:1]; NMeI = CC[C@H](C)[C@H](NC)C(=O)O; CH2CH(OH)CF3 = OC(C*)C(F)(F)F; NMeL = CN[C@@H](CC(C)C)C(=O)O; NMeV = CN[C@H](C(=O)O)C(C)C; NMeAbu = CC[C@H](NC)C(=O)O; NMeA = CN[C@@H](C)C(=O)O; Piperidide = C1CCN(*)CC1; NBuGly = CCCCNCC(=O)O; Sar = CNCC(=O)O; tBu = CC(C)(C)*

The data set is described as follows: in vitro. To be noted: human, Caco-2, Caco-2 (membrane permeability).
In the case of `CCCCN1CC(=O)N(C)[C@@H](Cc2ccccc2)C(=O)N(C)[C@@H](CC(C)C)C(=O)N[C@@H](COC(C)(C)C)C(=O)N(C)[C@@H](CC(C)C)C(=O)N[C@H](C(=O)N2CCCCC2)CC(=O)N(C)CC(=O)N(C)[C@@H](Cc2cccc(Cl)c2)C(=O)N[C@@H](COCC(O)C(F)(F)F)C(=O)N(C)[C@@H](CC(C)C)C(=O)N[C@@H]([C@@H](C)O)C1=O` (stereo partly drawn) [Compound C06] ([Sar][NMePhe(3-Cl)]S(CH2CH(OH)CF3)[NMeL]T[NBuGly][NMeF][NMeL]S(tBu)[NMeL]D-Piperidide; lactam N-11), the Papp is 0.48 ×10⁻⁶ cm/s.
In the case of `CCCCN1CC(=O)N(C)[C@@H](Cc2ccccc2)C(=O)N(C)[C@@H](CC(C)C)C(=O)N[C@@H](COCC(O)C(F)(F)F)C(=O)N(C)[C@@H](CC(C)C)C(=O)N[C@H](C(=O)N2CCCCC2)CC(=O)N(C)CC(=O)N(C)[C@@H](Cc2ccccc2)C(=O)N[C@@H]([C@@H](C)CC)C(=O)N(C)[C@@H](CC(C)C)C(=O)N[C@@H]([C@@H](C)O)C1=O` (stereo partly drawn) [Compound C07] ([Sar][NMeF]I[NMeL]T[NBuGly][NMeF][NMeL]S(CH2CH(OH)CF3)[NMeL]D-Piperidide; lactam N-11) it was 0.45 ×10⁻⁶ cm/s; in that of `CC[C@H](C)[C@H]1C(=O)N[C@@H]([C@@H](C)O)C(=O)N(C)CC(=O)N(C)[C@@H](CC(C)C)C(=O)N[C@H](C(=O)N2CCCCC2)CC(=O)N(C)[C@@H](C(C)C)C(=O)N[C@@H](COCC(O)C(F)(F)F)C(=O)N(C)[C@@H](CC(C)C)C(=O)N(C)[C@@H](Cc2ccccc2)C(=O)N[C@@H](CC(C)C)C(=O)N(C)[C@@H](Cc2ccccc2)C(=O)N1C` (stereo partly drawn) [Compound C08] ([NMeV]S(CH2CH(OH)CF3)[NMeL][NMeF]L[NMeF][NMeI]T[Sar][NMeL]D-Piperidide; lactam N-11), 0.6 ×10⁻⁶ cm/s; in that of `CCCCN1CC(=O)N(C)[C@@H](CC(C)C)C(=O)N[C@@H](COCC(O)C(F)(F)F)C(=O)N(C)[C@@H](Cc2ccccc2)C(=O)N(C)[C@@H](C(C)C)C(=O)N[C@H](C(=O)N2CCCCC2)CC(=O)N[C@H](C(C)C)C(=O)N(C)[C@@H](Cc2ccccc2)C(=O)N[C@@H](CC(C)C)C(=O)N(C)[C@@H](CC(C)C)C(=O)N[C@@H]([C@@H](C)O)C1=O` (stereo partly drawn) [Compound C09] ([dV][NMeF]L[NMeL]T[NBuGly][NMeL]S(CH2CH(OH)CF3)[NMeF][NMeV]D-Piperidide; lactam N-11), 0.12 ×10⁻⁶ cm/s.
Regarding `CC[C@H]1C(=O)N[C@@H](COC(C)(C)C)C(=O)N(C)[C@@H](Cc2ccccc2)C(=O)N(C)[C@@H](CC(C)C)C(=O)N[C@H](C(=O)N2CCCCC2)CC(=O)N[C@H](CC(C)C)C(=O)N(C)[C@@H](Cc2ccccc2)C(=O)N[C@@H](CC(C)C)C(=O)N(C)[C@@H](CC)C(=O)N[C@@H](COCC(O)C(F)(F)F)C(=O)N(C)CC(=O)N1C` (stereo partly drawn) [Compound C10] ([dL][NMeF]L[NMeAbu]S(CH2CH(OH)CF3)[Sar][NMeAbu]S(tBu)[NMeF][NMeL]D-Piperidide; lactam N-11), the apparent permeability coefficient (Papp) amounted to 0.95 ×10⁻⁶ cm/s.
The value for `CC(C)C[C@H]1C(=O)N[C@@H](C(C)C)C(=O)N(C)[C@@H](Cc2ccccc2)C(=O)N(C)[C@@H](Cc2ccccc2)C(=O)N[C@@H](COC(C)(C)C)C(=O)N(C)[C@@H](CC(C)C)C(=O)N[C@@H](COCC(O)C(F)(F)F)C(=O)N(C)[C@@H](CC(C)C)C(=O)N(C)[C@@H](CC(C)C)C(=O)N[C@H](C(=O)N2CCCCC2)CC(=O)N(C)CCCC(=O)N1C` (stereo partly drawn) [Compound C12] ([NMeGABA][NMeL]V[NMeF][NMeF]S(tBu)[NMeL]S(CH2CH(OH)CF3)[NMeL][NMeL]D-Piperidide; lactam N-11) was 0.23 ×10⁻⁶ cm/s; that for `CC[C@H]1C(=O)N(C)[C@@H](Cc2ccccc2)C(=O)N[C@@H](CC(C)C)C(=O)N(C)[C@@H](Cc2ccccc2)C(=O)N(C)[C@@H](C(C)C)C(=O)N[C@@H](COCC(O)C(F)(F)F)C(=O)N(C)CC(=O)N(C)[C@@H](CC(C)C)C(=O)N[C@H](C(=O)N2CCCCC2)CC(=O)N(C)[C@@H](C)C(=O)N[C@@H](CC(C)C)C(=O)N1C` (stereo partly drawn) [Compound C14] ([NMeA]L[NMeAbu][NMeF]L[NMeF][NMeV]S(CH2CH(OH)CF3)[Sar][NMeL]D-Piperidide; lactam N-11) was 2 ×10⁻⁶ cm/s.
The value for `CC[C@H](C)[C@H]1C(=O)N[C@@H](C(C)C)C(=O)N(C)CC(=O)N(C)[C@@H](CC(C)C)C(=O)N[C@H](C(=O)N2CCCCC2)CC(=O)N(C)[C@@H](C)C(=O)N[C@@H](COCC(O)C(F)(F)F)C(=O)N(C)[C@@H](CC(C)C)C(=O)N(C)[C@@H](Cc2ccccc2)C(=O)N[C@@H](CC(C)C)C(=O)N(C)[C@@H](Cc2ccccc2)C(=O)N1C` (stereo partly drawn) [Compound C15] ([NMeA]S(CH2CH(OH)CF3)[NMeL][NMeF]L[NMeF][NMeI]V[Sar][NMeL]D-Piperidide; lactam N-11) was 0.83 ×10⁻⁶ cm/s; that for `CCCCN1CC(=O)N(C)[C@@H](Cc2ccccc2)C(=O)N(C)[C@@H](CC(C)C)C(=O)N[C@@H](COC(C)(C)C)C(=O)N(C)[C@@H](CC(C)C)C(=O)N[C@H](C(=O)N2CCCCC2)CC(=O)N(C)CC(=O)N(C)[C@@H](Cc2ccccc2)C(=O)N[C@@H](C(C)C)C(=O)N(C)[C@@H](CC)C(=O)N[C@@H](COCC(O)C(F)(F)F)C1=O` (stereo partly drawn) [Compound C16] ([Sar][NMeF]V[NMeAbu]S(CH2CH(OH)CF3)[NBuGly][NMeF][NMeL]S(tBu)[NMeL]D-Piperidide; lactam N-11) was 0.41 ×10⁻⁶ cm/s.
In the case of `CC[C@H](C)[C@@H]1NC(=O)[C@H](CC(C)C)N(C)C(=O)[C@H](COCC(O)C(F)(F)F)NC(=O)[C@H](Cc2ccccc2)N(C)C(=O)CN(C)C(=O)C[C@@H](C(=O)N2CCCCC2)NC(=O)[C@H](CC(C)C)N(C)C(=O)[C@H](COC(C)(C)C)NC(=O)[C@H](CC(C)C)N(C)C(=O)[C@H](Cc2ccccc2)N(C)C(=O)CN(C)C1=O` (stereo partly drawn) [Compound C17] ([Sar][NMeF]S(CH2CH(OH)CF3)[NMeL]I[Sar][NMeF][NMeL]S(tBu)[NMeL]D-Piperidide; lactam N-11) it was 4.1 ×10⁻⁶ cm/s; in that of `CC(C)C[C@H]1C(=O)N[C@@H](CCCC(O)C(F)(F)F)C(=O)N(C)[C@@H](Cc2cccc(Cl)c2)C(=O)N(C)[C@@H](Cc2ccccc2)C(=O)N[C@@H](COC(C)(C)C)C(=O)N(C)[C@@H](CC(C)C)C(=O)N[C@@H]([C@@H](C)O)C(=O)N(C)[C@@H](CC(C)C)C(=O)N(C)[C@@H](CC(C)C)C(=O)N[C@H](C(=O)N2CCCCC2)CC(=O)N(C)CCCC(=O)N1C` (stereo partly drawn) [Compound D02] ([NMeGABA][NMeL][X12][NMePhe(3-Cl)][NMeF]S(tBu)[NMeL]T[NMeL][NMeL]D-Piperidide; lactam N-11), 0.14 ×10⁻⁶ cm/s; in that of `CC[C@H](C)[C@@H]1NC(=O)[C@H](CC(C)C)N(C)C(=O)CCCN(C)C(=O)C[C@@H](C(=O)N2CCCCC2)NC(=O)[C@H](CC(C)C)N(C)C(=O)[C@H](CC(C)C)N(C)C(=O)[C@H]([C@@H](C)O)NC(=O)[C@H](CC(C)C)N(C)C(=O)[C@H](CCCC(O)C(F)(F)F)NC(=O)[C@H](Cc2ccccc2)N(C)C(=O)[C@H](Cc2ccccc2)N(C)C1=O` (stereo partly drawn) [Compound D03] ([NMeGABA][NMeL]I[NMeF][NMeF][X12][NMeL]T[NMeL][NMeL]D-Piperidide; lactam N-11), 0.33 ×10⁻⁶ cm/s.
Regarding `CCCCN1CC(=O)N(C)[C@@H](CC(C)C)C(=O)N[C@H](C(=O)N2CCCCC2)CC(=O)N(C)[C@@H](C)C(=O)N[C@@H](CCCC(O)C(F)(F)F)C(=O)N(C)[C@@H](CC(C)C)C(=O)N(C)[C@@H](Cc2ccccc2)C(=O)N[C@@H](CC(C)C)C(=O)N(C)[C@@H](Cc2ccccc2)C(=O)N(C)[C@@H]([C@@H](C)CC)C(=O)N[C@@H]([C@@H](C)O)C1=O` (stereo partly drawn) [Compound D04] ([NMeA][X12][NMeL][NMeF]L[NMeF][NMeI]T[NBuGly][NMeL]D-Piperidide; lactam N-11), the apparent permeability coefficient (Papp) turned out to be 0.2 ×10⁻⁶ cm/s.
In the case of `CC[C@H](C)[C@H]1C(=O)N[C@@H]([C@@H](C)O)C(=O)N(C)CC(=O)N(C)[C@@H](CC(C)C)C(=O)N[C@H](C(=O)N2CCCCC2)CC(=O)N(C)[C@@H](C(C)C)C(=O)N[C@@H](CC(C)C)C(=O)N(C)[C@@H](CC(C)C)C(=O)N(C)[C@@H](Cc2ccccc2)C(=O)N[C@@H](CCCC(O)C(F)(F)F)C(=O)N(C)[C@@H](Cc2ccccc2)C(=O)N1C` (stereo partly drawn) [Compound D05] ([NMeV]L[NMeL][NMeF][X12][NMeF][NMeI]T[Sar][NMeL]D-Piperidide; lactam N-11) it was 0.36 ×10⁻⁶ cm/s.
The value for `CCCCN1CC(=O)N(C)[C@@H](Cc2ccccc2)C(=O)N(C)[C@@H](CC(C)C)C(=O)N[C@@H](COC(C)(C)C)C(=O)N(C)[C@@H](CC(C)C)C(=O)N[C@H](C(=O)N2CCCCC2)CC(=O)N(C)CC(=O)N(C)[C@@H](Cc2cccc(Cl)c2)C(=O)N[C@@H](CCCC(O)C(F)(F)F)C(=O)N(C)[C@@H](CC(C)C)C(=O)N[C@@H]([C@@H](C)O)C1=O` (stereo partly drawn) [Compound D06] ([Sar][NMePhe(3-Cl)][X12][NMeL]T[NBuGly][NMeF][NMeL]S(tBu)[NMeL]D-Piperidide; lactam N-11) was 0.23 ×10⁻⁶ cm/s.
The value for `CCCCN1CC(=O)N(C)[C@@H](Cc2ccccc2)C(=O)N(C)[C@@H](CC(C)C)C(=O)N[C@@H](CCCC(O)C(F)(F)F)C(=O)N(C)[C@@H](CC(C)C)C(=O)N[C@H](C(=O)N2CCCCC2)CC(=O)N(C)CC(=O)N(C)[C@@H](Cc2ccccc2)C(=O)N[C@@H]([C@@H](C)CC)C(=O)N(C)[C@@H](CC(C)C)C(=O)N[C@@H]([C@@H](C)O)C1=O` (stereo partly drawn) [Compound D07] ([Sar][NMeF]I[NMeL]T[NBuGly][NMeF][NMeL][X12][NMeL]D-Piperidide; lactam N-11) was 0.37 ×10⁻⁶ cm/s; that for `CC[C@H](C)[C@H]1C(=O)N[C@@H]([C@@H](C)O)C(=O)N(C)CC(=O)N(C)[C@@H](CC(C)C)C(=O)N[C@H](C(=O)N2CCCCC2)CC(=O)N(C)[C@@H](C(C)C)C(=O)N[C@@H](CCCC(O)C(F)(F)F)C(=O)N(C)[C@@H](CC(C)C)C(=O)N(C)[C@@H](Cc2ccccc2)C(=O)N[C@@H](CC(C)C)C(=O)N(C)[C@@H](Cc2ccccc2)C(=O)N1C` (stereo partly drawn) [Compound D08] ([NMeV][X12][NMeL][NMeF]L[NMeF][NMeI]T[Sar][NMeL]D-Piperidide; lactam N-11) was 0.53 ×10⁻⁶ cm/s.
In turn, `CCCCN1CC(=O)N(C)[C@@H](CC(C)C)C(=O)N[C@@H](CCCC(O)C(F)(F)F)C(=O)N(C)[C@@H](Cc2ccccc2)C(=O)N(C)[C@@H](C(C)C)C(=O)N[C@H](C(=O)N2CCCCC2)CC(=O)N[C@H](C(C)C)C(=O)N(C)[C@@H](Cc2ccccc2)C(=O)N[C@@H](CC(C)C)C(=O)N(C)[C@@H](CC(C)C)C(=O)N[C@@H]([C@@H](C)O)C1=O` (stereo partly drawn) [Compound D09] ([dV][NMeF]L[NMeL]T[NBuGly][NMeL][X12][NMeF][NMeV]D-Piperidide; lactam N-11) yielded a Papp of 0.13 ×10⁻⁶ cm/s.
